Our source for the IC50 values is patent US20250026742A1 (SUZHOU ARK BIOPHARMACEUTICAL CO., LTD., priority 2021, published 2025).

This assay concerns the target ATR kinase (Homo sapiens (Human), UniProt Q13535). The assay is described as follows: ATR enzyme activity inhibition assay (HTRF). It counts as biochemical. Conditions: p53 substrate, full-length ATR enzyme. The method, then:
The inhibitory ability to ATR kinase for selected compounds was tested by the HTRF (Homogeneous Time-Resolved Fluorescence). In the reaction system, After the substrate p53 is phosphorylated by ATR, the anti-phospho-p53-Eu that serves as an energy donor and specifically binds to the phosphorylation site on p53 is added. Then, the anti-GST-d2 as an energy acceptor that specifically binds to the GST tag carried on p53 is added. […] The IC50 of the sample to be tested can be obtained through graphing and calculation.
Prepare various buffer systems required for the experiment: • 1. […] Prepare detection buffer: Dilute each of the anti-phospho-p53-Eu cryptate (Cisbio, Cat #61P08KA) and anti-GST-d2 (Cisbio, Cat #61GSTDLB) to 1 unit using HTRF detection buffer (Cisbio, Cat #62SDBRDF).
Powdered compounds were dissolved in DMSO to from a stock solution at a concentration of 10 mM. The solution of compounds to be tested at a concentration of […] was performed a 3-fold dilution for 10 concentrations with DMSO. […] 5 μL of ATR was added to each well accordingly. Each well is incubated at 25° C. for 10 min, added with 5 μL of reaction substrate, incubated at 25° C. for 90 min and added with 10 μL of detection solution. […] The inhibition curves of the compounds were made by the four-parameter […] regression equation of XLfit software, and the inhibition rates of the compounds were calculated.
On the technique in general: In TR-FRET formats the signal depends on donor and acceptor labels being close together.

Structures can show the parent of a compound that is named as a salt.

Sequence of ATR kinase (Q13535 whole entry): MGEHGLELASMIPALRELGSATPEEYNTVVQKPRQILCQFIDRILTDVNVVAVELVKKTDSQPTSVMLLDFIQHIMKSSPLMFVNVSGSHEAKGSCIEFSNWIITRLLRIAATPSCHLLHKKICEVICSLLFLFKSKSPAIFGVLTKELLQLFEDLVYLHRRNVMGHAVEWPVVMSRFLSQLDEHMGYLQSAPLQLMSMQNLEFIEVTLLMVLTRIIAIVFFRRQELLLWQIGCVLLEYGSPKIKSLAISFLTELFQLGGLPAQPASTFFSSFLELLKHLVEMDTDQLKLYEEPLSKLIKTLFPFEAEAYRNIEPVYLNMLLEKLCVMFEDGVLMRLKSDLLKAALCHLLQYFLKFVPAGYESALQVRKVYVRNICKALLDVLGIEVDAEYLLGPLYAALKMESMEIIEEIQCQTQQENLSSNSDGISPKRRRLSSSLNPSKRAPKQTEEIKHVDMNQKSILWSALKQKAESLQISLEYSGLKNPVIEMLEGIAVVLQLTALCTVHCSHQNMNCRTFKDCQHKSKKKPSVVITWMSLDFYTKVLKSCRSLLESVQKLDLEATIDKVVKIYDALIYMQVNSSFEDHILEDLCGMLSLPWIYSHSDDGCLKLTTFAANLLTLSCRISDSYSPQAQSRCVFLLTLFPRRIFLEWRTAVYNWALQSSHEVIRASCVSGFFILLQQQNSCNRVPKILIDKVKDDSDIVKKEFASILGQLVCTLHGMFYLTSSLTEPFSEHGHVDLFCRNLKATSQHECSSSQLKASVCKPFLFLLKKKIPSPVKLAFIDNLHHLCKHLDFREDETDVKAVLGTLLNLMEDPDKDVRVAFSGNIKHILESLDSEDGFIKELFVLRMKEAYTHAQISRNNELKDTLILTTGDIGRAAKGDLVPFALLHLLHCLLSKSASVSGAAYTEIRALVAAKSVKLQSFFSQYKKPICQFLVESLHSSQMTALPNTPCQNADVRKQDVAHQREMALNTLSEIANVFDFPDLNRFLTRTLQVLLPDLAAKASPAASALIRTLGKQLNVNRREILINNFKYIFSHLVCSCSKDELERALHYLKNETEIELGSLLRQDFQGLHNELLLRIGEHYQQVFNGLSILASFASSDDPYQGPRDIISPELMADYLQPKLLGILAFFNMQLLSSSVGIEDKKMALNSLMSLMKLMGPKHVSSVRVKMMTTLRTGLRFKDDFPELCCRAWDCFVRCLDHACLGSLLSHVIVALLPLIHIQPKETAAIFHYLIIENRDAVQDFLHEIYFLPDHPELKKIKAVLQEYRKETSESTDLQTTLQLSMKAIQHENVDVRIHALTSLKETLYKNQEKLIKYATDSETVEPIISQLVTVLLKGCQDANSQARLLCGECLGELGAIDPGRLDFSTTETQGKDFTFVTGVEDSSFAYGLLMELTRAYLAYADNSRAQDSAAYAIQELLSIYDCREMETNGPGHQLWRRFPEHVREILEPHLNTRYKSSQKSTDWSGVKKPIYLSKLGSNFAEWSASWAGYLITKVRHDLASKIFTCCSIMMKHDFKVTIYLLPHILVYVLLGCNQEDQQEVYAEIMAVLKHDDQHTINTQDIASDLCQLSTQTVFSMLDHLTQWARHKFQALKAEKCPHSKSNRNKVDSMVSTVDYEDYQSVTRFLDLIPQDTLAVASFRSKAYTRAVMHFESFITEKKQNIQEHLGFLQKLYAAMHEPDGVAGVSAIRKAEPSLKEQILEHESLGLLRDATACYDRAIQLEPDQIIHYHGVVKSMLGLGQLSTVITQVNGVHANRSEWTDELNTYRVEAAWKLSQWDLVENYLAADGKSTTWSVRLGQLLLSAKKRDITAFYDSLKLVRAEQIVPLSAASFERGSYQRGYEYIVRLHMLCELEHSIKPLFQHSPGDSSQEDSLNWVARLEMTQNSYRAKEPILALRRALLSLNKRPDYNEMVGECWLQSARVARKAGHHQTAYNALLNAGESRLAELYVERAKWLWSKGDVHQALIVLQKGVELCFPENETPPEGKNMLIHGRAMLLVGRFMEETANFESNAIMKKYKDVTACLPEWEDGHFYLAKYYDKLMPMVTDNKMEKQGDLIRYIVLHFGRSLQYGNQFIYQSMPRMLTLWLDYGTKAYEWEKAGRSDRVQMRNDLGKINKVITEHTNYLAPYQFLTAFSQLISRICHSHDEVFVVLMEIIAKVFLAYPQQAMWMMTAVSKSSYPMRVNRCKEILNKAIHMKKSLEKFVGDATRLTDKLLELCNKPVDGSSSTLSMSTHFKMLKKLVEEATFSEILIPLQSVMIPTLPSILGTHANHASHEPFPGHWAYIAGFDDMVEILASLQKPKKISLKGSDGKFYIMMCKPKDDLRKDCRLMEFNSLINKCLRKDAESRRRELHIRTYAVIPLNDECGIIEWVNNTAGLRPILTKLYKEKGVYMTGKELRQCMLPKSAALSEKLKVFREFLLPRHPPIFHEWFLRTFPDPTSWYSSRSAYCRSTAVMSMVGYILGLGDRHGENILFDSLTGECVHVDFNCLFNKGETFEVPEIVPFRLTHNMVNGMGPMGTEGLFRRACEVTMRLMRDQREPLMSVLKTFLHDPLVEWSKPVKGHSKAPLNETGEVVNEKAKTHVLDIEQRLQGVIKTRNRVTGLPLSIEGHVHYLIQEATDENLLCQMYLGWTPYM
Sequence of ATR kinase (Q8WXE1 whole entry partner): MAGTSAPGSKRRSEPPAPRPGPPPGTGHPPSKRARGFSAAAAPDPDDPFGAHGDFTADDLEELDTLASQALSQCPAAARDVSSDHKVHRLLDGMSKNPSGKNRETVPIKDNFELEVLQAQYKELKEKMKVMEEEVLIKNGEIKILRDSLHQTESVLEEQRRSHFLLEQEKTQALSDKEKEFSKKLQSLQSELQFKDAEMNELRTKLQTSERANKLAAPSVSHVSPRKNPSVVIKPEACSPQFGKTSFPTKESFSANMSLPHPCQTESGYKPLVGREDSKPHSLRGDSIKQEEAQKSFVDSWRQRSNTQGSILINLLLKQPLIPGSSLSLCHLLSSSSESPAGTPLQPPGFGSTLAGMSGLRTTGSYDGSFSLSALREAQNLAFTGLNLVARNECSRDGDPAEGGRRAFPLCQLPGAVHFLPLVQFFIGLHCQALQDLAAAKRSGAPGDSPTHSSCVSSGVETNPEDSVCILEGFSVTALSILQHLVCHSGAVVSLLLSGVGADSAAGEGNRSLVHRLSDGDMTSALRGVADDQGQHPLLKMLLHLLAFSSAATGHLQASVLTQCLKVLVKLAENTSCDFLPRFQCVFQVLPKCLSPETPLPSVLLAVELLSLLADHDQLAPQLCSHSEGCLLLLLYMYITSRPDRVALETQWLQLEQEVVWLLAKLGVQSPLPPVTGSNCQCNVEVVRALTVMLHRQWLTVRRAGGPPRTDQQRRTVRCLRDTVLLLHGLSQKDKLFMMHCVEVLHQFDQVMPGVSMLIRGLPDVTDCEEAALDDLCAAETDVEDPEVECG

On to `N=C(N)NCc1ccc(-c2cc(-c3nc(-c4ccc(S(=O)(=O)C5CC5)cc4)cnc3N)on2)cc1` [Example 23, 1-(4-(5-(3-amino-6-(4-(cyclopropylsulfonyl)phenyl)pyrazin-2-yl)isoxazol-3-yl)benzyl)guanidine dihydrochloride], for which the IC50 (usually the point on the concentration scale where inhibition reaches its midpoint) was found to be 0.7 nM.

Turning to `CC(C)S(=O)(=O)c1ccc(-c2cnc(N)c(-c3cc(-c4ccc(CNC(=N)N)cc4)no3)n2)cc1` [Example 1, 1-(4-(5-(3-amino-6-(4-(isopropylsulfonyl)phenyl)pyrazin-2-yl)isoxazol-3-yl)benzyl)guanidine dihydrochloride], it took 0.97 nM to reach half-maximal inhibition (IC50).

For `CC(C)S(=O)(=O)c1ccc(-c2cnc(N)c(-c3cc(-c4ccc(CNS(N)(=O)=O)cc4)no3)n2)cc1` [Example 8, 3-(3-(4-((aminosulfonyl)aminomethylene)phenyl)isoxazol-5-yl)-5-(4-(isopropylsulfonyl)phenyl)pyrazin-2-amine], the IC50 was 3.64 nM.

The compound `CC(C)S(=O)(=O)c1ccc(-c2cnc(N)c(-c3cc(-c4ccc(CNC(=N)N)c(F)c4)no3)n2)cc1` [Example 24, 1-(4-(5-(3-amino-6-(4-(isopropylsulfonyl)phenyl)pyrazin-2-yl)isoxazol-3-yl)-2-fluorobenzyl)guanidine dihydrochloride] yielded an IC50 of 1.08 nM.

For `CNCc1ccc(-c2nnc(-c3nc(-c4ccc5c(c4)C(F)C(C)(C)S5(=O)=O)cnc3N)s2)cc1` (stereo not shown) [Example 37, 5-(5-amino-6-(5-(4-((methylamino)methyl)phenyl)-1,3,4-thiadiazol-2-yl)pyrazin-2-yl)-3-fluoro-2,2-dimethyl-2,3-dihydrobenzo[b]thiophene 1,1-dioxide], the midpoint of inhibition, the IC50, lay at 0.77 nM.

In turn, `CCNC(=O)NCc1ccc(-c2cc(-c3nc(-c4ccc(S(=O)(=O)C(C)C)cc4)cnc3N)on2)cc1` [Example 6, 1-(4-(5-(3-amino-6-(4-(isopropylsulfonyl)phenyl)pyrazin-2-yl)isoxazol-3-yl)benzyl)-3-ethylurea] yielded an IC50 of 2.9 nM.

Compound `CNCc1ccc(-c2cc(-c3nc(-c4ccc5c(c4)C(F)C(C)(C)S5(=O)=O)cnc3N)no2)cc1` (stereo not shown) [Example 34, 5-(5-amino-6-(5-(4-((methylamino)methyl)phenyl)isoxazol-3-yl)pyrazin-2-yl)-3-fluoro-2,2-dimethyl-2,3-dihydrobenzo[b]thiophene 1,1-dioxide] returned an IC50 of 0.92 nM.

The compound `CC(=N)NCc1ccc(-c2cc(-c3nc(-c4ccc(S(=O)(=O)C(C)C)cc4)cnc3N)on2)cc1` [Example 28, N-(4-(5-(3-amino-6-(4-(isopropylsulfonyl)phenyl)pyrazin-2-yl)isoxazol-3-yl)benzyl)acetamidine dihydrochloride] registered an IC50 of 1.29 nM.

With `CN1CCC(NCc2ccc(-c3nnc(-c4nc(-c5ccc6c(c5)C(F)C(C)(C)S6(=O)=O)cnc4N)o3)cc2)CC1` (stereo not shown) [Example 36], half-maximal inhibition (IC50) required 0.57 nM.

On to `CNCc1ccc(-c2cc(-c3nc(-c4ccc(S(=N)(=O)C(C)C)cc4)cnc3N)on2)cc1` (stereo not shown) [Example 2, (4-(5-amino-6-(3-(4-((methylamino)methyl)phenyl)isoxazol-5-yl)pyrazin-2-yl)phenyl)(imino)(isopropyl)-λ^6-sulfoxide], for which the IC50 is 2.79 nM.

Turning to `N=C(N)NCc1ccc(-c2cc(-c3nc(-c4ccc5c(c4)CCS5(=O)=O)cnc3N)on2)cc1` [Example 27, 1-(4-(5-(3-amino)-6-(1,1-dioxo-2,3-dihydrobenzo[b]thiophen-5-yl)pyrazin-2-yl)isoxazol-3-yl)benzyl)guanidine dihydrochloride], the IC50 was found to be 0.75 nM.

In turn, `CC(C)S(=O)(=O)c1ccc(-c2cnc(N)c(-c3cc(-c4ccc5[nH]c(=O)[nH]c5c4)no3)n2)cc1` [Example 21, 5-(5-(3-amino-6-(4-(isopropylsulfonyl)phenyl)pyrazin-2-yl)isoxazol-3-yl)-1,3-dihydro-2H-benzo[d]imidazol-2-one] gave an IC50 of 1.31 nM.

Compound `CC(C)S(=O)(=O)c1ccc(-c2cnc(N)c(-c3cc(-c4ccc(NC(=N)N)cc4)no3)n2)cc1` [Example 16, 1-(4-(5-(3-amino-6-(4-(isopropylsulfonyl)phenyl)pyrazin-2-yl)isoxazol-3-yl)phenyl)guanidine] displayed an IC50 of 9.74 nM.

As for `CNCc1ccc(-c2cc(-c3nc(-c4ccc5c(c4)C(F)C(C)(C)S5(=O)=O)cnc3N)on2)cc1` (stereo not shown) [Example 32, 5-(5-amino-6-(3-(4-((methylamino)methyl)phenyl)isoxazol-5-yl)pyrazin-2-yl)-3-fluoro-2,2-dimethyl-2,3-dihydrobenzo[b]thiophene 1,1-dioxide], it took 2.09 nM to reach half-maximal inhibition (IC50).

`CC(C)S(=O)(=O)c1ccc(-c2cnc(N)c(-c3cc(-c4c(F)cc(CNC(=N)N)cc4F)no3)n2)cc1` [Example 11, 1-(4-(5-(3-amino-6-(4-(isopropylsulfonyl)phenyl)pyrazin-2-yl)isoxazol-3-yl)-3,5-difluorobenzyl)guanidine dihydrochloride] came in with an IC50 of 0.82 nM.

As for `CC(C)S(=O)(=O)c1ccc(-c2cnc(N)c(-c3cc(-c4ccc(CNC(=N)N)cc4C(F)(F)F)no3)n2)cc1` [Example 30, 1-(4-(5-(3-amino-6-(4-(isopropylsulfonyl)phenyl)pyrazin-2-yl)isoxazol-3-yl)-3-(trifluoromethyl)benzyl)guanidine dihydrochloride], the 50% inhibitory concentration (IC50) amounted to 3.35 nM.

`CNC(=N)Nc1ccc(-c2cc(-c3nc(-c4ccc(S(=O)(=O)C(C)C)cc4)cnc3N)on2)nc1` [Example 19, 1-(6-(5-(3-amino-6-(4-(isopropylsulfonyl)phenyl)pyrazin-2-yl)isoxazol-3-yl)pyridin-3-yl)-3-methylguanidine dihydrochloride]: the IC50 was found to be 1.26 nM.

On to `CNC(=N)Nc1ccc(-c2cc(-c3nc(-c4ccc(S(=O)(=O)C(C)C)cc4)cnc3N)on2)cc1` [Example 17, 1-(4-(5-(3-amino-6-(4-(isopropylsulfonyl)phenyl)pyrazin-2-yl)isoxazol-3-yl)phenyl)-3-methylguanidine dihydrochloride], for which the IC50 came to 0.93 nM.

With `CC(C)S(=O)(=O)c1ccc(-c2cnc(N)c(-c3cc(-c4ccc(NC(N)=O)cc4)no3)n2)cc1` [Example 15, 1-(4-(5-(3-amino-6-(4-(isopropylsulfonyl)phenyl)pyrazin-2-yl)isoxazol-3-yl)phenyl)urea], the IC50 was 2 nM.

`CNC(=O)NCc1ccc(-c2cc(-c3nc(-c4ccc(S(=O)(=O)C(C)C)cc4)cnc3N)on2)cc1` [Example 7, 1-(4-(5-(3-amino-6-(4-(isopropylsulfonyl)phenyl)pyrazin-2-yl)isoxazol-3-yl)benzyl)-3-methylurea] yielded an IC50 of 1.04 nM.

Compound `CC(C)S(=N)(=O)c1ccc(-c2cnc(N)c(-c3cc(-c4ccc5[nH]c(=O)[nH]c5c4)no3)n2)cc1` (stereo not shown) [Example 22, 5-(5-(3-amino-6-(4-(propan-2-ylsulfonimido)phenyl)pyrazin-2-yl)isoxazol-3-yl)-1,3-dihydro-benzimidazol-2-one dihydrochloride] came in with an IC50 of 1.21 nM.

`CC(C)S(=O)(=O)c1ccc(-c2cnc(N)c(-c3cc(-c4ccc(CNC(=N)N)cc4F)no3)n2)cc1` [Example 4, 1-(4-(5-(3-amino-6-(4-isopropylsulfonyl)phenyl)pyrazin-2-yl)isoxazol-3-yl)-3-fluorobenzyl)guanidine dihydrochloride] displayed an IC50 of 0.83 nM.

Take `CNC(=O)Nc1ccc(-c2cc(-c3nc(-c4ccc(S(=O)(=O)C(C)C)cc4)cnc3N)on2)cc1` [Example 14, 1-(4-(5-(3-amino-6-(4-(isopropylsulfonyl)phenyl)pyrazin-2-yl)isoxazol-3-yl)phenyl)-3-methylurea]: inhibition was half-maximal at 1.42 nM (IC50).

Take `CNC(=N)Nc1ccc(-c2cc(-c3nc(-c4ccc(S(=O)(=O)C(C)C)cc4)cnc3N)on2)c(F)c1` [Example 20, 1-(4-(5-(3-amino-6-(4-(isopropylsulfonyl)phenyl)pyrazin-2-yl)isoxazol-3-yl)-3-fluorophenyl)-3-methylguanidine dihydrochloride]: the IC50 was determined as 1.81 nM.

Regarding `CCNC(=N)Nc1ccc(-c2cc(-c3nc(-c4ccc(S(=O)(=O)C(C)C)cc4)cnc3N)on2)cc1` [Example 18, 1-(4-(5-(3-amino-6-(4-(isopropylsulfonyl)phenyl)pyrazin-2-yl)isoxazol-3-yl)phenyl)-3-ethylguanidine dihydrochloride], the IC50 turned out to be 1.16 nM.

`CN=S(=O)(c1ccc(-c2cnc(N)c(-c3cc(-c4ccc(CNC(=N)N)cc4)no3)n2)cc1)C(C)C` (stereo not shown) [Example 13, 1-(4-(5-(3-amino-6-(4-(N-methylpropan-2-yl-sulfonimido)phenyl)pyrazin-2-yl)isoxazol-3-yl)benzyl)guanidine dihydrochloride] returned an IC50 of 1.68 nM.

On to `CC(C)S(=O)(=O)c1ccc(-c2cnc(N)c(-c3cc(-c4ccc5[nH]nnc5c4)no3)n2)cc1` [Example 3, 3-(3-(1H-benzo[d][1,2,3]triazol-5-yl)isoxazol-5-yl)-5-(4-(isopropylsulfonyl)phenyl)pyrazin-2-amine], for which the IC50 was determined as 1.6 nM.

Regarding `CC(C)S(=O)(=O)c1ccc(-c2cnc(N)c(-c3cc(-c4ccc(C(=O)NC(=N)N)cc4)no3)n2)cc1` [Example 26, dihydrochloride], 2.06 nM corresponded to half-maximal inhibition (IC50).
